± gives the expanded uncertainty stated by the source.
How the values were obtained:
[1] = refractive index (Na D-line) (dimensionless); xn = mol fraction of the nth substance listed; settings: 100 kPa, Liquid, Standard Abbe refractometry
[2] = xn = mol fraction of the nth substance listed; settings: 100 kPa, Liquid; for speed of sound: Frequency=3 MHz, Single path-length method; for mass density: Vibrating tube method

`NCc1ccccc1` [benzylamine] + C[S+](C)[O-] gave a refractive index ([1]; 293.15 K, x2 = 0) of 1.544 ± 0.006, a refractive index ([1]; 293.15 K, x2 = 0.1031) of 1.54 ± 0.006 and a refractive index ([1]; 293.15 K, x2 = 0.1998) of 1.536 ± 0.006. For the same compound, the refractive index ([1]; 293.15 K, x2 = 0.2979) was 1.532 ± 0.006, the refractive index ([1]; 293.15 K, x2 = 0.399) was 1.526 ± 0.006 and the refractive index ([1]; 293.15 K, x2 = 0.4991) was 1.52 ± 0.006. For the same compound, the refractive index ([1]; 293.15 K, x2 = 0.5886) was 1.515 ± 0.006, the refractive index ([1]; 293.15 K, x2 = 0.6999) was 1.507 ± 0.006 and the refractive index ([1]; 293.15 K, x2 = 0.8029) was 1.498 ± 0.006. It also gave a refractive index ([1]; 293.15 K, x2 = 0.8991) of 1.49 ± 0.006, a refractive index ([1]; 293.15 K, x2 = 0.9493) of 1.485 ± 0.006 and a refractive index ([1]; 303.15 K, x2 = 0) of 1.539 ± 0.006. The refractive index ([1]; 303.15 K, x2 = 0.1031) was 1.535 ± 0.006, the refractive index ([1]; 303.15 K, x2 = 0.1998) was 1.531 ± 0.006 and the refractive index ([1]; 303.15 K, x2 = 0.2979) was 1.527 ± 0.006. It also gave a refractive index ([1]; 303.15 K, x2 = 0.399) of 1.522 ± 0.006, a refractive index ([1]; 303.15 K, x2 = 0.4991) of 1.516 ± 0.006 and a refractive index ([1]; 303.15 K, x2 = 0.5886) of 1.51 ± 0.006. It also gave a refractive index ([1]; 303.15 K, x2 = 0.6999) of 1.502 ± 0.006, a refractive index ([1]; 303.15 K, x2 = 0.8029) of 1.494 ± 0.006 and a refractive index ([1]; 303.15 K, x2 = 0.8991) of 1.485 ± 0.006. It also gave a refractive index ([1]; 303.15 K, x2 = 0.9493) of 1.48 ± 0.006, a refractive index ([1]; 313.15 K, x2 = 0) of 1.534 ± 0.006 and a refractive index ([1]; 313.15 K, x2 = 0.1031) of 1.53 ± 0.006. For the same compound, the refractive index ([1]; 313.15 K, x2 = 0.1998) was 1.527 ± 0.006, the refractive index ([1]; 313.15 K, x2 = 0.2979) was 1.522 ± 0.006 and the refractive index ([1]; 313.15 K, x2 = 0.399) was 1.517 ± 0.006. It also gave a refractive index ([1]; 313.15 K, x2 = 0.4991) of 1.511 ± 0.006, a refractive index ([1]; 313.15 K, x2 = 0.5886) of 1.505 ± 0.006 and a refractive index ([1]; 313.15 K, x2 = 0.6999) of 1.498 ± 0.006. It also gave a refractive index ([1]; 313.15 K, x2 = 0.8029) of 1.489 ± 0.006, a refractive index ([1]; 313.15 K, x2 = 0.8991) of 1.481 ± 0.006 and a refractive index ([1]; 313.15 K, x2 = 0.9493) of 1.476 ± 0.006. The refractive index ([1]; 323.15 K, x2 = 0) was 1.529 ± 0.006, the refractive index ([1]; 323.15 K, x2 = 0.1031) was 1.526 ± 0.006 and the refractive index ([1]; 323.15 K, x2 = 0.1998) was 1.522 ± 0.006. It also gave a refractive index ([1]; 323.15 K, x2 = 0.2979) of 1.517 ± 0.006, a refractive index ([1]; 323.15 K, x2 = 0.399) of 1.512 ± 0.006 and a refractive index ([1]; 323.15 K, x2 = 0.4991) of 1.506 ± 0.006. For the same compound, the refractive index ([1]; 323.15 K, x2 = 0.5886) was 1.501 ± 0.006, the refractive index ([1]; 323.15 K, x2 = 0.6999) was 1.493 ± 0.006 and the refractive index ([1]; 323.15 K, x2 = 0.8029) was 1.485 ± 0.006. The refractive index ([1]; 323.15 K, x2 = 0.8991) was 1.476 ± 0.006, the refractive index ([1]; 323.15 K, x2 = 0.9493) was 1.471 ± 0.006 and the speed of sound ([2]; 293.15 K, x2 = 0) was 1579.7 ± 1.7 m/s. It also gave a speed of sound ([2]; 293.15 K, x2 = 0.1031) of 1578.5 ± 1.7 m/s, a speed of sound ([2]; 293.15 K, x2 = 0.1998) of 1575.9 ± 1.6 m/s and a speed of sound ([2]; 293.15 K, x2 = 0.2979) of 1571.1 ± 1.6 m/s. It also gave a speed of sound ([2]; 293.15 K, x2 = 0.399) of 1565.5 ± 1.6 m/s, a speed of sound ([2]; 293.15 K, x2 = 0.4991) of 1558.8 ± 1.6 m/s and a speed of sound ([2]; 293.15 K, x2 = 0.5886) of 1551.6 ± 1.5 m/s. For the same compound, the speed of sound ([2]; 293.15 K, x2 = 0.6999) was 1540.9 ± 1.5 m/s, the speed of sound ([2]; 293.15 K, x2 = 0.8029) was 1530 ± 1.5 m/s and the speed of sound ([2]; 293.15 K, x2 = 0.8991) was 1517.7 ± 1.5 m/s. It also gave a speed of sound ([2]; 293.15 K, x2 = 0.9493) of 1510.6 ± 1.5 m/s, a mass density ([2]; 293.15 K, x2 = 0) of 983 ± 4 kg/m3 and a mass density ([2]; 293.15 K, x2 = 0.1031) of 992 ± 4 kg/m3. It also gave a mass density ([2]; 293.15 K, x2 = 0.1998) of 1001 ± 4 kg/m3, a mass density ([2]; 293.15 K, x2 = 0.2979) of 1011 ± 4 kg/m3 and a mass density ([2]; 293.15 K, x2 = 0.399) of 1021 ± 4 kg/m3. For the same compound, the mass density ([2]; 293.15 K, x2 = 0.4991) was 1032 ± 4 kg/m3, the mass density ([2]; 293.15 K, x2 = 0.5886) was 1043 ± 4 kg/m3 and the mass density ([2]; 293.15 K, x2 = 0.6999) was 1056 ± 4 kg/m3. The mass density ([2]; 293.15 K, x2 = 0.8029) was 1070 ± 4 kg/m3, the mass density ([2]; 293.15 K, x2 = 0.8991) was 1084 ± 4 kg/m3 and the mass density ([2]; 293.15 K, x2 = 0.9493) was 1092 ± 4 kg/m3. The speed of sound ([2]; 303.15 K, x2 = 0) was 1540.2 ± 1.7 m/s, the speed of sound ([2]; 303.15 K, x2 = 0.1031) was 1539.3 ± 1.7 m/s and the speed of sound ([2]; 303.15 K, x2 = 0.1998) was 1536.1 ± 1.6 m/s. The speed of sound ([2]; 303.15 K, x2 = 0.2979) was 1533.5 ± 1.6 m/s, the speed of sound ([2]; 303.15 K, x2 = 0.399) was 1527.6 ± 1.6 m/s and the speed of sound ([2]; 303.15 K, x2 = 0.4991) was 1521.6 ± 1.6 m/s. It also gave a speed of sound ([2]; 303.15 K, x2 = 0.5886) of 1514.9 ± 1.5 m/s, a speed of sound ([2]; 303.15 K, x2 = 0.6999) of 1504.8 ± 1.5 m/s and a speed of sound ([2]; 303.15 K, x2 = 0.8029) of 1494.9 ± 1.5 m/s. It also gave a speed of sound ([2]; 303.15 K, x2 = 0.8991) of 1483.3 ± 1.5 m/s, a speed of sound ([2]; 303.15 K, x2 = 0.9493) of 1476.2 ± 1.5 m/s and a mass density ([2]; 303.15 K, x2 = 0) of 974 ± 4 kg/m3. It also gave a mass density ([2]; 303.15 K, x2 = 0.1031) of 983 ± 4 kg/m3, a mass density ([2]; 303.15 K, x2 = 0.1998) of 992 ± 4 kg/m3 and a mass density ([2]; 303.15 K, x2 = 0.2979) of 1002 ± 4 kg/m3. It also gave a mass density ([2]; 303.15 K, x2 = 0.399) of 1012 ± 4 kg/m3, a mass density ([2]; 303.15 K, x2 = 0.4991) of 1023 ± 4 kg/m3 and a mass density ([2]; 303.15 K, x2 = 0.5886) of 1033 ± 4 kg/m3. For the same compound, the mass density ([2]; 303.15 K, x2 = 0.6999) was 1047 ± 4 kg/m3, the mass density ([2]; 303.15 K, x2 = 0.8029) was 1061 ± 4 kg/m3 and the mass density ([2]; 303.15 K, x2 = 0.8991) was 1075 ± 4 kg/m3. The mass density ([2]; 303.15 K, x2 = 0.9493) was 1082 ± 4 kg/m3, the speed of sound ([2]; 313.15 K, x2 = 0) was 1500 ± 1.7 m/s and the speed of sound ([2]; 313.15 K, x2 = 0.1031) was 1500.2 ± 1.7 m/s. The speed of sound ([2]; 313.15 K, x2 = 0.1998) was 1497.6 ± 1.6 m/s, the speed of sound ([2]; 313.15 K, x2 = 0.2979) was 1494.6 ± 1.6 m/s and the speed of sound ([2]; 313.15 K, x2 = 0.399) was 1490.3 ± 1.6 m/s. The speed of sound ([2]; 313.15 K, x2 = 0.4991) was 1484.8 ± 1.6 m/s, the speed of sound ([2]; 313.15 K, x2 = 0.5886) was 1478.6 ± 1.5 m/s and the speed of sound ([2]; 313.15 K, x2 = 0.6999) was 1469.2 ± 1.5 m/s. The speed of sound ([2]; 313.15 K, x2 = 0.8029) was 1460 ± 1.5 m/s, the speed of sound ([2]; 313.15 K, x2 = 0.8991) was 1448.6 ± 1.5 m/s and the speed of sound ([2]; 313.15 K, x2 = 0.9493) was 1442.2 ± 1.5 m/s. The mass density ([2]; 313.15 K, x2 = 0) was 965 ± 4 kg/m3, the mass density ([2]; 313.15 K, x2 = 0.1031) was 974 ± 4 kg/m3 and the mass density ([2]; 313.15 K, x2 = 0.1998) was 983 ± 4 kg/m3. The mass density ([2]; 313.15 K, x2 = 0.2979) was 993 ± 4 kg/m3, the mass density ([2]; 313.15 K, x2 = 0.399) was 1003 ± 4 kg/m3 and the mass density ([2]; 313.15 K, x2 = 0.4991) was 1014 ± 4 kg/m3. For the same compound, the mass density ([2]; 313.15 K, x2 = 0.5886) was 1024 ± 4 kg/m3, the mass density ([2]; 313.15 K, x2 = 0.6999) was 1038 ± 4 kg/m3 and the mass density ([2]; 313.15 K, x2 = 0.8029) was 1051 ± 4 kg/m3. The mass density ([2]; 313.15 K, x2 = 0.8991) was 1065 ± 4 kg/m3, the mass density ([2]; 313.15 K, x2 = 0.9493) was 1072 ± 4 kg/m3 and the speed of sound ([2]; 323.15 K, x2 = 0) was 1461.1 ± 1.7 m/s. It also gave a speed of sound ([2]; 323.15 K, x2 = 0.1031) of 1461.4 ± 1.7 m/s, a speed of sound ([2]; 323.15 K, x2 = 0.1998) of 1459.4 ± 1.6 m/s and a speed of sound ([2]; 323.15 K, x2 = 0.2979) of 1457.4 ± 1.6 m/s. It also gave a speed of sound ([2]; 323.15 K, x2 = 0.399) of 1453.3 ± 1.6 m/s, a speed of sound ([2]; 323.15 K, x2 = 0.4991) of 1448.4 ± 1.6 m/s and a speed of sound ([2]; 323.15 K, x2 = 0.5886) of 1442.7 ± 1.5 m/s. For the same compound, the speed of sound ([2]; 323.15 K, x2 = 0.6999) was 1434 ± 1.5 m/s, the speed of sound ([2]; 323.15 K, x2 = 0.8029) was 1425.3 ± 1.5 m/s and the speed of sound ([2]; 323.15 K, x2 = 0.8991) was 1414.6 ± 1.5 m/s. The speed of sound ([2]; 323.15 K, x2 = 0.9493) was 1408.5 ± 1.5 m/s, the mass density ([2]; 323.15 K, x2 = 0) was 957 ± 4 kg/m3 and the mass density ([2]; 323.15 K, x2 = 0.1031) was 966 ± 4 kg/m3. It also gave a mass density ([2]; 323.15 K, x2 = 0.1998) of 974 ± 4 kg/m3, a mass density ([2]; 323.15 K, x2 = 0.2979) of 984 ± 4 kg/m3 and a mass density ([2]; 323.15 K, x2 = 0.399) of 994 ± 4 kg/m3. It also gave a mass density ([2]; 323.15 K, x2 = 0.4991) of 1005 ± 4 kg/m3, a mass density ([2]; 323.15 K, x2 = 0.5886) of 1015 ± 4 kg/m3 and a mass density ([2]; 323.15 K, x2 = 0.6999) of 1028 ± 4 kg/m3. It also gave a mass density ([2]; 323.15 K, x2 = 0.8029) of 1042 ± 4 kg/m3, a mass density ([2]; 323.15 K, x2 = 0.8991) of 1055 ± 4 kg/m3 and a mass density ([2]; 323.15 K, x2 = 0.9493) of 1062 ± 4 kg/m3.

— the NIST ThermoML archive (doi:10.1016/j.jct.2018.02.018)
